This note sets out measurements from US9732094B2, “Arylquinazolines” (Merck Patent GmbH, priority 2013, dated 2017).

Read-outs that look alike come from different tables or passages of the source.

One data set deals with DNA-PK (Homo sapiens (Human), UniProt P78527). The experiment in a line: DNA-PK assay (biochemical), flashplate 33P-ATP kinase assay. The method in brief: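 Reactions ran in streptavidin-coated flashplates and were halted by 200 mM EDTA, with a further 30 min at room temperature before saline washing.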
For a further data set, the target named is Kv11.1 (hERG) (Homo sapiens (Human), UniProt Q12809). Briefly: Kv11.1 (hERG) ion channel activity (patch clamp assay), HEK293 cells transfected with hERG gene. For orientation: Block of hERG is tested as a sign of cardiac risk.
Kv11.1 (hERG), sequence (Q12809 whole entry): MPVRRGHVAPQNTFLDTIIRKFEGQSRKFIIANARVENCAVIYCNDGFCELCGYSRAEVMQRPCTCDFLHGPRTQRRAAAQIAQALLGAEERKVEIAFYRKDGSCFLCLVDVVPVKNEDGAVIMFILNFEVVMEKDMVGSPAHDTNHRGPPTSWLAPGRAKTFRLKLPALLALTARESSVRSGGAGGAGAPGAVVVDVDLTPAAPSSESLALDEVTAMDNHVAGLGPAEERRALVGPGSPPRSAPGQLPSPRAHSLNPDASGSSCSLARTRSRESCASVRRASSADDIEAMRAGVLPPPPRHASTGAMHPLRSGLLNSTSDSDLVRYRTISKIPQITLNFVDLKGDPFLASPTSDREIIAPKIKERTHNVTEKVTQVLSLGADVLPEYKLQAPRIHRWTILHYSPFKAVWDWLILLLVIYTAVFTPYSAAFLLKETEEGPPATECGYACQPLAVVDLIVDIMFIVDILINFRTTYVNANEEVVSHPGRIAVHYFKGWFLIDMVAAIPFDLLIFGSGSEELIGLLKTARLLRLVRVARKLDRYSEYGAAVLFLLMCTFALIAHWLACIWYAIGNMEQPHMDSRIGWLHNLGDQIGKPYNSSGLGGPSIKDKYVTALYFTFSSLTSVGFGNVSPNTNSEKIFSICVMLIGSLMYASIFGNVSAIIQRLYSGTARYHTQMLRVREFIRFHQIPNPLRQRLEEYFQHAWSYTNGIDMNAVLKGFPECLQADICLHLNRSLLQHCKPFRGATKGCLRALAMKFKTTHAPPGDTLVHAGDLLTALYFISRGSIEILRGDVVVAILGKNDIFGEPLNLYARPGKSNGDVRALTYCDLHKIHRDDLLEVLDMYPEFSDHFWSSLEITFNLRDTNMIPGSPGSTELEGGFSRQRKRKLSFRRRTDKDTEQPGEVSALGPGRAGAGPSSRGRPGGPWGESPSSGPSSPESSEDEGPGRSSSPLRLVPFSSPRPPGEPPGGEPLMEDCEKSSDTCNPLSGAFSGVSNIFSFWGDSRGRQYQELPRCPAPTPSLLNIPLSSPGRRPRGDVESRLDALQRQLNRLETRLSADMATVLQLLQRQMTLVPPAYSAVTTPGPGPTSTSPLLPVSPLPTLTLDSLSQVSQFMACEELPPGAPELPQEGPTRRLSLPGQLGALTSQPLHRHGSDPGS
Data set [1] addresses DNA-PK phosphorylation at serine 2056 (Homo sapiens (Human), UniProt P78527). The experiment in a line: DNA-PK phosphorylation at serine 2056 (cellular), bleomycin-treated HCT116 cells, ELISA. Type of data set: cell-based. The settings on record: read-out: IC50 pDNA-PK. The method in brief:
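After overnight seeding, HCT116 cells received compound with 10 μM bleomycin for 6 h; phospho-DNA-PK ELISA signals were scaled to total DNA-PKcs, DMSO serving as blank.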
Background: An ELISA detects its analyte on a solid surface through an enzyme-linked reagent.

Where [2] appears, read: Ki [Kv1.11 hERG], hERG patch clamp assay (cells without asterisk).
[3] abbreviates: cellular DNA-PK phosphorylation at serine 2056, HCT116.
Where [4] appears, read: read-out: Ki [Kv1.11 hERG], Table 5.
The mark [5] stands for this setting: read-out: Ki [Kv1.11 hERG], hERG patch clamp assay (cells without asterisk).
[6] abbreviates: cellular, HCT116 cells, 10 μM bleomycin, six hours.
[7] abbreviates: read-out: Ki [Kv1.11 hERG], patch clamp, HEK293 transfected with hERG gene.

Regarding `OC(c1cc(-c2ncnc3cc(N4CCOCC4)ccc23)ccc1Cl)c1ncncc1F` (stereo not drawn) [Example 389, [2-Chloro-5-(7-morpholin-4-yl-quinazolin-4-yl)-phenyl]-(5-fluoro-pyrimidin-4-yl)-methanol], the IC50 on DNA-PK (biochemical DNA-PK assay) is 0.007 to 0.03 µM; in data set [1] (setting [3]), 5 to 10 µM. Also, the inhibition constant Ki at Kv11.1 (hERG) (setting [2]) lay within 10 to 15 µM.

On to `CC(O)(c1cncc(-c2ncnc3cc(N4CCOCC4)ccc23)c1)c1nccs1` (stereo not drawn) [Example 152, 1-[5-(7-Morpholin-4-ylquinazolin-4-yl)-pyridin-3-yl]-1-thiazol-2-ylethanol], for which the IC50 on DNA-PK (Table 5) lay within 0.007 to 0.03 µM; in data set [1] (Table 5, HCT116 cells) it was 10 to 30 µM. The Ki on Kv11.1 (hERG) (setting [4]) was over 25 µM.

With `OC(c1cnc(F)c(-c2ncnc3cc(N4CCOCC4)ccc23)c1)c1nccs1` (stereo not drawn) [Example 188, [6-Fluoro-5-(7-morpholin-4-yl-quinazolin-4-yl)-pyridin-3-yl]thiazol-2-ylmethanol], the IC50 on DNA-PK (Table 5) was under 0.003 µM; in data set [1] (Table 5, HCT116 cells), 5 to 10 µM. Moreover, on Kv11.1 (hERG) (setting [4]), the Ki was over 25 µM.

Regarding `Cn1cnc2c(C(O)c3cc(-c4ncnc5cc(N6CCOCC6)ccc45)c(F)cc3F)ncnc21` (stereo not drawn) [Example 347, [2,4-Difluoro-5-(7-morpholin-4-yl-quinazolin-4-yl)-phenyl]-(9-methyl-9H-purin-6-yl)-methanol], the IC50 on DNA-PK (biochemical DNA-PK assay) was in the range of 0.003 to 0.007 µM; in data set [1] (setting [3]), 0.5 to 5 µM. Also, at Kv11.1 (hERG) (setting [5]), the inhibition constant Ki is over 25 µM.

With `COc1ccc(C(O)c2cc(-c3ncnc4cc(N5CCOCC5)sc34)c(F)cc2Cl)nn1` (single isomer, unassigned) [Example 126, [2-Chloro-4-fluoro-5-(6-morpholin-4-ylthieno[3,2-d}-pyrimidin-4-yl)-phenyl]-(6-methoxy-pyridazin-3-yl)-methanol], the IC50 is under 0.003 µM against DNA-PK (enzymatic, 5 μM ATP) and under 0.5 µM in data set [1] (setting [6]). This compound also had a Ki on Kv11.1 (hERG) (human, HEK293 cells stably transfected with the hERG gene, Ki [Kv1.11 hERG], patch clamp, HEK293 transfected with hERG gene) of 10 to 15 µM.

As for `OC(c1ccc(F)c(-c2ncnc3cc(N4CCOCC4)ccc23)c1)c1ncnc2c1CCNC2` (stereo not drawn) [Example 388, [4-Fluoro-3-(7-morpholin-4-yl-quinazolin-4-yl)-phenyl]-(5,6,7,8-tetrahydropyrido-[3,4-d}pyrimidin-4-yl)-methanol], the figures for the IC50 (at DNA-PK (biochemical DNA-PK assay); in data set [1] (setting [3])) were 0.007 to 0.03 µM and 0.5 to 5 µM, respectively. Besides, at Kv11.1 (hERG) (setting [2]), the Ki lay in the range of 10 to 15 µM.

As for `OC(c1ccc(F)c(-c2ncnc3cc(N4CCOCC4)ccc23)c1)c1nccn2cnnc12` (stereo not drawn) [Example 351, [4-Fluoro-3-(7-morpholin-4-yl-quinazolin-4-yl)-phenyl]-[1,2,4]-triazolo[4,3-a]-pyrazin-8-ylmethanol], the IC50 lay within 0.007 to 0.03 µM against DNA-PK (biochemical DNA-PK assay) and 10 to 30 µM in data set [1] (setting [3]). Further, at Kv11.1 (hERG) (setting [5]), the Ki was over 25 µM.

`OC(c1cc(-c2ncnc3cc(N4CCOCC4)ccc23)c(F)cc1F)c1nncc2ccsc12` (stereo not drawn) [Example 342, [2,4-Difluoro-5-(7-morpholin-4-yl-quinazolin-4-yl)-phenyl]thieno[2,3-d}-pyridazin-7-yl-methanol]: the results for the IC50 (against DNA-PK (biochemical DNA-PK assay); in data set [1] (setting [3])) were under 0.003 µM and under 0.5 µM, respectively. For the same compound, at Kv11.1 (hERG) (setting [5]), the Ki was over 25 µM.

For `NCCn1nc(C(O)c2cc(-c3ncnc4cc(N5CCOCC5)ccc34)c(F)cc2Cl)ccc1=O` (stereo not drawn) [Example 94, 2-(2-Amino-ethyl)-6-{[2-Chloro-4-fluoro-5-(7-morpholin-4-yl-quinazolin-4-yl)phenyl]-hydroxymethyl}-2H-pyridazin-3-one], the IC50 lay within 0.007 to 0.03 µM at DNA-PK (enzymatic, 5 μM ATP) and 10 to 30 µM in data set [1] (setting [6]). In addition, at Kv11.1 (hERG) (setting [7]), the inhibitory constant (Ki) is over 25 µM.

On to `OC(c1cc(F)c(F)c(-c2ncnc3cc(N4CCOCC4)ccc23)c1)c1nccs1` (stereo not drawn) [Example 178, [3,4-Difluoro-5-(7-morpholin-4-yl-quinazolin-4-yl)-phenyl)thiazol-2-yl-methanol], for which the IC50 on DNA-PK (Table 5) was under 0.003 µM; in data set [1] (Table 5, HCT116 cells), 0.5 to 5 µM. At Kv11.1 (hERG) (setting [4]), the Ki was over 25 µM.

Turning to `COc1nccnc1C(O)c1ccc(F)c(-c2ncnc3cc(N4CCOCC4)ccc23)c1` (stereo not drawn) [Example 16, [4-Fluoro-3-(7-morpholin-4-yl-quinazolin-4-yl)phenyl]-(3-methoxy-pyrazin-2-yl)methanol], the IC50 at DNA-PK (enzymatic, 5 μM ATP) fell in the range of 0.007 to 0.03 µM; in data set [1] (setting [6]), 0.5 to 5 µM. At Kv11.1 (hERG) (setting [7]), the Ki was over 25 µM.

As to `OC(c1cc(-c2ncnc3cc(N4CCOCC4)ccc23)c(F)cc1F)c1nccnc1OC(F)F` (stereo not drawn) [Example 451, (3-Difluoromethoxy-pyrazin-2-yl)-[2,4-difluoro-5-(7-morpholin-4-yl-quinazolin-4-yl)-phenyl]methanol], the IC50 on DNA-PK (biochemical DNA-PK assay) fell in the range of 0.003 to 0.007 µM; in data set [1] (setting [3]) it was 0.5 to 5 µM. The inhibition constant (Ki) at Kv11.1 (hERG) (setting [5]) fell in the range of 15 to 25 µM.

For `COc1nccnc1[C@@H](O)c1cc(-c2ncnc3cc(N4CCOCC4)ccc23)c(F)cc1Cl` [Example 456, (S)-(2-Chloro-4-fluoro-5-(7-morprholin-4-yl-quinazolin-4-yl)-pnenyl]-(3-methoxy-pyrazin-2-yl)-methanol], the half-maximal inhibitory concentration (IC50) against DNA-PK (biochemical DNA-PK assay) is under 0.003 µM; in data set [1] (setting [3]) it was under 0.5 µM. The compound also yielded a Ki at Kv11.1 (hERG) (setting [2]) of 10 to 15 µM.

As for `OC(c1cc(-c2ncnc3cc(N4CCOCC4)ccc23)ccc1Cl)c1ncnc2ccoc12` (stereo not drawn) [Example 432, [2-Chloro-5-(7-morpholin-4-yl-quinazolin-4-yl)-phenyl]furo[3,2-d}-pyrimidin-4-yl-methanol], the IC50 against DNA-PK (biochemical DNA-PK assay) lay within 0.007 to 0.03 µM; in data set [1] (setting [3]), 0.5 to 5 µM. Moreover, the inhibitory constant (Ki) at Kv11.1 (hERG) (setting [5]) was 10 to 15 µM.

On to `Cn1c(C(O)c2cc(-c3ncnc4cc(N5CCOCC5)ccc34)ccc2F)cccc1=O` (stereo not drawn) [Example 366, 6-{[2-Fluoro-5-(7-morpholin-4-yl-quinazolin-4-yl)-phenyl]hydroxy-methyl}-1-methyl-1H-pyridin-2-one], for which the results for the IC50 (on DNA-PK (biochemical DNA-PK assay); in data set [1] (setting [3])) were 0.007 to 0.03 µM and 5 to 10 µM, respectively. Besides, on Kv11.1 (hERG) (setting [5]), the Ki was over 25 µM.

For `OC(c1ccc(F)c(-c2ncnc3cc(N4CCOCC4)ccc23)c1)c1nccnc1C(F)(F)F` (stereo not drawn) [Example 476, [4-Fluoro-3-(7-morpholin-4-yl-quinazolin-4-yl)-phenyl]-(3-trifluoro-methylpyrazin-2-yl)-methanol], the IC50 on DNA-PK (biochemical DNA-PK assay) was 0.003 to 0.007 µM; in data set [1] (setting [3]), under 0.5 µM. Besides, the Ki on Kv11.1 (hERG) (setting [5]) was over 25 µM.

For `Cc1cnnc(C(O)c2cc(-c3ncnc4cc(N5CCOCC5)ccc34)c(F)cc2Cl)c1` (stereo not drawn) [Example 46, [2-Chloro-4-fluoro-5-(7-morpholin-4-yl-quinazolin-4-yl)phenyl]-(5-methylpyridazin-3-yl)methanol], the IC50 against DNA-PK (enzymatic, 5 μM ATP) fell in the range of 0.007 to 0.03 µM; in data set [1] (setting [6]), 5 to 10 µM. In addition, on Kv11.1 (hERG) (Ki [Kv1.11 hERG], patch clamp, HEK293 transfected with hERG gene), the Ki is 15 to 25 µM.

For the compound `Cc1cncnc1C(O)c1cc(-c2ncnc3cc(N4CCOCC4)ccc23)ccc1Cl` (stereo not drawn) [Example 419, [2-Chloro-5-(7-morpholin-4-yl-quinazolin-4-yl)-phenyl]-(5-methyl-pyrimidin-4-yl)-methanol], the values for the IC50 (at DNA-PK (biochemical DNA-PK assay); in data set [1] (setting [3])) were 0.007 to 0.03 µM and 0.5 to 5 µM, respectively. Moreover, the inhibition constant Ki on Kv11.1 (hERG) (setting [5]) was 15 to 25 µM.

For `Cc1nccnc1C(O)c1cc(-c2ncnc3cc(N4CCOCC4)cnc23)c(F)cc1Cl` (stereo not drawn) [Example 240, [2-Chloro-4-fluoro-5-(7-morpholin-4-yl-pyrido[3,2-d}-pyrimidin-4-yl)-phenyl]-(3-methyl-pyrazin-2-yl)-methanol], the IC50 at DNA-PK (biochemical DNA-PK assay) was in the range of 0.007 to 0.03 µM; in data set [1] (setting [3]) it was 0.5 to 5 µM. Moreover, the Ki at Kv11.1 (hERG) (setting [5]) is over 25 µM.

For the compound `Cc1cncnc1C(C(N)=O)c1cc(-c2ncnc3cc(N4CCOCC4)ccc23)ccc1Cl` (stereo not drawn) [Example 377, 2-[2-Chloro-5-(7-morpholin-4-yl-quinazolin-4-yl)-phenyl]-2-(5-methyl-pyrimidin-4-yl)-acetamide], the IC50 was 0.003 to 0.007 µM against DNA-PK (biochemical DNA-PK assay) and 0.5 to 5 µM in data set [1] (setting [3]). On Kv11.1 (hERG) (setting [2]), this compound had a Ki of 15 to 25 µM.

What is called IC50 is the concentration that inhibits the measured activity by half. As usually defined, the Ki is the dissociation constant of the complex between target and ligand, obtained from inhibition or displacement.
